The record followed here is ChEMBL document CHEMBL1123466, “Selective thromboxane synthetase inhibitors. 3. 1H-imidazol-1-yl-substituted benzo[b]furan-, benzo[b]thiophene-, and indole-2- and -3-carboxylic acids” (J Med Chem, 1986).

Sequence of Prostaglandin G/H synthase (cyclooxygenase) (Ovis aries) (P05979 whole entry, looked up): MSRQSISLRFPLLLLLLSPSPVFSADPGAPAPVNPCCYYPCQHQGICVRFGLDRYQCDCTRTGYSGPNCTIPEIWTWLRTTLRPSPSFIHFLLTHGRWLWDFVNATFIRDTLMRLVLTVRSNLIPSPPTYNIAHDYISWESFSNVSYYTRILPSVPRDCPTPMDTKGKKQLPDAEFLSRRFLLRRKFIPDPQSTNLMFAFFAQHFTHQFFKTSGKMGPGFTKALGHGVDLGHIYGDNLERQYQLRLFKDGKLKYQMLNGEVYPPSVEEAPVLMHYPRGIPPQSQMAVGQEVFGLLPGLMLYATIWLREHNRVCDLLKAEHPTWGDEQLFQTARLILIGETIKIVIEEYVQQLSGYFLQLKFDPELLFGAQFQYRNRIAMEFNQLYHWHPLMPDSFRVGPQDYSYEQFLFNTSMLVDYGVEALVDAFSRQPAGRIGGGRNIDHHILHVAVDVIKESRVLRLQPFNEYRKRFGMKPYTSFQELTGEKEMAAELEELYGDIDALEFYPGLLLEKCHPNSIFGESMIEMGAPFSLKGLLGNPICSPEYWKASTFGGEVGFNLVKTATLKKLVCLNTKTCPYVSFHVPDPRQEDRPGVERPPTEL
Sequence of Prostaglandin G/H synthase (cyclooxygenase) (Ovis aries) (P79208 whole entry, looked up): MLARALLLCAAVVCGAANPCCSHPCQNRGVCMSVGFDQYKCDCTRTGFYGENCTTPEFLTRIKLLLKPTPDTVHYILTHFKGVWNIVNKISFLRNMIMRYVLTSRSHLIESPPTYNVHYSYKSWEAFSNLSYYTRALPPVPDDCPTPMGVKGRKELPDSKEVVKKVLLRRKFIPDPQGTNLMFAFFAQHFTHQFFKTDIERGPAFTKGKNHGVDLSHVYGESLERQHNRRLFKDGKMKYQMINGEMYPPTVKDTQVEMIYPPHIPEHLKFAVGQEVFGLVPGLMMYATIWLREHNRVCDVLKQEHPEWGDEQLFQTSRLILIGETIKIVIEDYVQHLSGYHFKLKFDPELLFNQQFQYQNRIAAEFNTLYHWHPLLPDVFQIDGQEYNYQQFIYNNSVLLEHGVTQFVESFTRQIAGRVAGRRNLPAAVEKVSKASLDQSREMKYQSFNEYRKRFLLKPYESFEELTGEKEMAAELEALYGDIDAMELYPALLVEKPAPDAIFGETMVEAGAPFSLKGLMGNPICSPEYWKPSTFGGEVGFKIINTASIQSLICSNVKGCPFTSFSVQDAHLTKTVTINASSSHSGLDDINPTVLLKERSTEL

The first series concerns the target T1, Thromboxane-A synthase (Homo sapiens, UniProt P24557).
T1 sequence (P24557 whole entry): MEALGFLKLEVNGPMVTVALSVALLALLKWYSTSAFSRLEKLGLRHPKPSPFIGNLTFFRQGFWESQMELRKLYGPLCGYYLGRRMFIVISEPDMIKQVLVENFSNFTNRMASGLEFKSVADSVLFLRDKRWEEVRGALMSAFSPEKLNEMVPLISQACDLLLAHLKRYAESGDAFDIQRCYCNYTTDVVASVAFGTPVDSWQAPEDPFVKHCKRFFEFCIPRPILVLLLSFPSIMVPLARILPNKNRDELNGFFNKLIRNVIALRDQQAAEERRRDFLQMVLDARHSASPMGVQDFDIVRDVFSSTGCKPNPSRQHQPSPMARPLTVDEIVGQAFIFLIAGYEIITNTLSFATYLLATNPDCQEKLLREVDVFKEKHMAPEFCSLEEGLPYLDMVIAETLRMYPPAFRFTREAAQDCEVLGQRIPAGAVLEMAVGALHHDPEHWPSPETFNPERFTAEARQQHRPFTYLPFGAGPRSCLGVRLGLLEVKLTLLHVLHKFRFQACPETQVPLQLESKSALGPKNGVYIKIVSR
Description: In vitro inhibition of thromboxane synthase from human platelets.
Molecule `O=C(O)c1csc2ccc(Cn3ccnc3)cc12` yielded an IC50 of 1700 nM.
On the same count and under the same terms, for `O=C(O)COc1ccc(Cn2ccnc2)cc1` the value was 31 nM.
On to `O=C(O)c1cc2cc(Cn3ccnc3)ccc2s1`, for which half-maximal inhibition (IC50) was put at 21 nM.
Still for that read-out and setting: for `Cc1c(C(=O)O)sc2cc(Cn3ccnc3)ccc12` the value was 5.2 nM.
The same measure, in the same setting: as for `O=C(O)c1sc2cc(Cn3ccnc3)ccc2c1Cl`, the figure is 7.4 nM.
Still for that read-out and setting: as for `O=C(O)c1cc2ccc(Cn3ccnc3)cc2s1`, the figure is 18 nM; as for `O=C(O)c1cc2ccc(Cn3ccnc3)cc2o1`, 20 nM; as for `Cc1c(C(=O)O)sc2ccc(Cn3ccnc3)cc12`, 29 nM.
With `O=C(O)c1csc2cc(Cn3ccnc3)ccc12`, the IC50 was determined as 19 nM. This IC50 is about 1.5-fold lower than that of the molecule before.
On the same count and under the same terms, as for `O=C(O)c1cc2cc(Cn3ccnc3)ccc2[nH]1`, the figure is 5 nM.
The molecule `Cc1c(C(=O)O)sc2cc(OCCn3ccnc3)ccc12` returned an IC50 of 140 nM. This IC50 lies about 28-fold higher than the previous one.
Still for that read-out and setting: for `O=C(O)c1cc2cc(OCCn3ccnc3)ccc2s1` the value was 420 nM; for `O=C(O)c1cc2cc(Cn3ccnc3)ccc2o1`, 34 nM; for `O=C(O)c1cc2c(O)cc(Cn3ccnc3)cc2s1`, 52 nM.
`COc1cc(Cn2ccnc2)cc2sc(C(=O)O)cc12` showed an IC50 of 5 nM.
The same measure, in the same setting: for `O=C(O)c1cc2cccc(Cn3ccnc3)c2s1` the value was 120 nM; for `O=C(O)c1csc2c(Cn3ccnc3)cccc12`, 34 nM; for `O=C(O)c1cc2ccc(Cn3ccnc3)cc2[nH]1`, 33 nM.

A further series has as its target Prostaglandin G/H synthase (cyclooxygenase) (Ovis aries) (UniProt P05979+P79208). The series is described as follows: Effect on ram seminal vesicle cyclooxygenase activity at 10e-4 M; no significant effect. In kind it is tissue-based.
For `Cc1c(C(=O)O)sc2cc(Cn3ccnc3)ccc12`, the Effect entry is “No effect”.

For a further series, the target named is T2, Cytochrome P450 11B1, mitochondrial (Rattus norvegicus, UniProt P15393).
T2 sequence (P15393 whole entry): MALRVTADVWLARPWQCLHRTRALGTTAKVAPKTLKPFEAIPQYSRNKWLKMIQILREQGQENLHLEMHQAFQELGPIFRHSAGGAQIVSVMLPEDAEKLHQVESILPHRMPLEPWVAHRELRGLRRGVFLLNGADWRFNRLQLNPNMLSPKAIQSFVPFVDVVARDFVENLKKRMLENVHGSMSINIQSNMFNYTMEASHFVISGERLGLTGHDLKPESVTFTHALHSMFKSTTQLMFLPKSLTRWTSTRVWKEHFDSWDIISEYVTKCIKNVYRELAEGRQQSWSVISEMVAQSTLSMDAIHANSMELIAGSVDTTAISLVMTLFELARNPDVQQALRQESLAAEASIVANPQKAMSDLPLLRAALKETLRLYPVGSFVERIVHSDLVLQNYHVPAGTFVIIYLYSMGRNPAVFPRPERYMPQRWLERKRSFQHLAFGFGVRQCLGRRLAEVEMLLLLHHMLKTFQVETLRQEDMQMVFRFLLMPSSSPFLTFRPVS
Description: Effect on adrenal 11-beta-hydroxylase activity at 10e-4 M; No significant effect.
In the case of `Cc1c(C(=O)O)sc2cc(Cn3ccnc3)ccc12`, the Effect entry is “No effect”.

The next series relates to Prostacyclin synthase (Sus scrofa). The series is described as follows: Effect on porcine aorta prostacyclin (PGI-2) synthase activity at 10e-4 M; No significant effect.
Take `Cc1c(C(=O)O)sc2cc(Cn3ccnc3)ccc12`: the Effect entry is “No effect”.
